What follows are compounds tested on P. falciparum (NF54 or 3D7 strain) (assay: Assay for P. falciparum proliferation in infected human blood cells (SYBR Green)). Details: Plasmodium falciparum, Erythrocyte, 72 h, NF54 or 3D7 infected human erythrocytes, 72 hours; read-out: EC50 (nM), inhibitory efficacy in delaying P. falciparum proliferation in infected human blood cells.
Assay type: cell-based, Plasmodium falciparum
Outline: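 NF54 or 3D7 parasites in O+ human erythrocytes at 2.5% hematocrit and 0.3% parasitemia final, exposed to compounds 72 h at 37 °C under 93% N2/4% CO2/3% O2.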

Structure (SMILES)	EC50
CN(C(=O)c1cn2c(-c3ncc(F)cc3F)cnc2cn1)c1ccc(C#N)cc1 [Compound 29, N-(4-cyanophenyl)-3-(3,5-difluoropyridin-2-yl)-N-methylimidazo[1,2-a]pyrazine-6-carboxamide]	2040 nM
CN(C(=O)c1cn2c(-c3ccc(C(N)=O)nc3)cnc2cn1)c1ccc(C#N)cc1 [Compound 393, 5-{6-[(4-cyanophenyl)(methyl)carbamoyl]imidazo[1,2-a]pyrazin-3-yl}pyridine-2-carboxamide]	3940 nM
O=C(NCc1ccc(N2CCOCC2)cc1)c1cn2c(-c3ccc(C(F)(F)F)cc3)cnc2cn1 [Compound 383, N-{[4-(morpholin-4-yl)phenyl]methyl}-3-[4-(trifluoromethyl)phenyl]imidazo[1,2-a]pyrazine-6-carboxamide]	> 10000 nM
CN(C(=O)c1cn2c(-c3ccc4[nH]nc(N)c4c3)cnc2cn1)c1ccc(C#N)cc1 [Compound 396, 3-(3-amino-1H-indazol-5-yl)-N-(4-cyanophenyl)-N-methylimidazo[1,2-a]pyrazine-6-carboxamide]	5720 nM
CN(Cc1ccc(F)cc1)C(=O)c1cn2c(-c3ccc(C(F)(F)F)cc3)cnc2cn1 [Compound 192, N-[(4-fluorophenyl)methyl]-N-methyl-3-[4-(trifluoromethyl)phenyl]imidazo[1,2-a]pyrazine-6-carboxamide]	7390 nM
C=Cc1cnc2cnc(C(=O)N(C)c3ccc(Cl)nc3)cn12 [Compound 381, N-(6-chloropyridin-3-yl)-3-ethenyl-N-methylimidazo[1,2-a]pyrazine-6-carboxamide]	5110 nM
CN(C(=O)c1cn2c(-c3ccc(C(F)(F)F)cc3)cnc2cn1)c1ccc(C2CCC2)cn1 [Compound 382, N-(5-cyclobutylpyridin-2-yl)-N-methyl-3-[4-(trifluoromethyl)phenyl]imidazo[1,2-a]pyrazine-6-carboxamide]	8400 nM
N#Cc1ccc(CNC(=O)c2cn3c(-c4ccc(C(F)(F)F)cc4)cnc3cn2)cc1 [Compound 362, -[(4-cyanophenyl)methyl]-3-[4-(trifluoromethyl)phenyl]imidazo[1,2-a]pyrazine-6-carboxamide]	6470 nM
CN(C(=O)c1cn2c(-c3ccc(C4CCCN4)cc3)cnc2cn1)c1ccc(C#N)cc1 (stereo not shown) [Compound 193, N-(4-cyanophenyl)-N-methyl-3-[4-(pyrrolidin-2-yl)phenyl]imidazo[1,2-a]pyrazine-6-carboxamide]	8590 nM
Cc1ccc(N(C)Cc2cn3c(-c4ccc(-c5ccn[nH]5)cc4)cnc3cn2)nc1 [Compound 47, N,5-dimethyl-N-({3-[4-(1H-pyrazol-5-yl)phenyl]imidazo[1,2-a]pyrazin-6-yl}methyl)pyridin-2-amine]	1240 nM
NC(=O)c1nc[nH]c1NC(=O)c1cn2c(-c3ccc(C(F)(F)F)cc3)cnc2cn1 [Compound 404, 5-C-3-[4-(trifluoromethyl)phenyl]imidazo[1,2-a]pyrazine-6-1H-imidazole-4,5-dicarboxamide]	> 7570 nM
COc1ccc(-c2cnc3cnc(C(=O)N(C)c4ccc(Cl)nc4)cn23)cn1 [Compound 336, N-(6-chloropyridin-3-yl)-3-(6-methoxypyridin-3-yl)-N-methylimidazo[1,2-a]pyrazine-6-carboxamide]	6930 nM
CN(C(=O)c1cn2c(-c3ccc(C(F)(F)F)cc3)cnc2cn1)c1nccs1 [Compound 356, N-methyl-N-(1,3-thiazol-2-yl)-3-[4-(trifluoromethyl)phenyl]imidazo[1,2-a]pyrazine-6-carboxamide]	6680 nM
CN(C(=O)c1cn2c(-c3ccc(Cl)cc3Cl)cnc2cn1)c1ccc(C#N)cc1 [Compound 20, N-(4-cyanophenyl)-3-(2,4-dichlorophenyl)-N-methylimidazo[1,2-a]pyrazine-6-carboxamide]	> 10000 nM
CN(C(=O)N1CCC(F)CC1)c1cn2c(-c3ccc(C(F)(F)F)cc3)cnc2cn1 [Compound 322, 4-fluoro-N-methyl-N-{3-[4-(trifluoromethyl)phenyl]imidazo[1,2-a]pyrazin-6-yl}piperidine-1-carboxamide]	2710 nM
Cc1nc2cnc(C(=O)Nc3ccc(C#N)cc3)cn2c1-c1ccc(C(F)(F)F)cc1 [Compound 376, N-(4-cyanophenyl)-2-methyl-3-[4-(trifluoromethyl)phenyl]imidazo[1,2-a]pyrazine-6-carboxamide]	9490 nM

Other lines, results leading:

EC50	Structure (SMILES)
74 nM	CN(C(=O)c1cn2c(-c3ccc(C(N)=O)cc3)cnc2cn1)c1ccc(F)c(F)c1 [Compound 22, 3-(4-carbamoylphenyl)-N-(3,4-difluorophenyl)-N-methylimidazo[1,2-a]pyrazine-6-carboxamide]
961 nM	CN(C)c1ccc(-c2cnc3cnc(C(=O)N(C)c4ccc(S(C)(=O)=O)cc4)cn23)cc1 [Compound 164, 3-[4-(dimethylamino)phenyl]-N-(4-methanesulfonylphenyl)-N-methylimidazo[1,2-a]pyrazine-6-carboxamide]
98 nM	CN(C(=O)c1cn2c(-c3cnc4[nH]ccc4c3)cnc2cn1)c1ccc(C#N)cc1 [Compound 243, N-(4-cyanophenyl)-N-methyl-3-{1H-pyrrolo[2,3-b]pyridin-5-yl}imidazo[1,2-a]pyrazine-6-carboxamide]
234 nM	CC(C)[C@H](N)C(=O)Nc1ccc(-c2cnc3cnc(C(=O)N(C)c4ccc(C#N)cc4)cn23)cc1 [Compound 266, 3-{4-[(2S)-2-amino-3-methylbutanamido]phenyl}-N-(4-cyanophenyl)-N-methylimidazo[1,2-a]pyrazine-6-carboxamide]
35 nM	COc1cc(Cl)ccc1N(C)C(=O)c1cn2c(-c3ccc(C(F)(F)F)cc3)cnc2cn1 [Compound 59, N-(4-chloro-2-methoxyphenyl)-N-methyl-3-[4-(trifluoromethyl)phenyl]imidazo[1,2-a]pyrazine-6-carboxamide]
120 nM	CN(C(=O)c1cn2c(-c3ccc(Cl)cc3)cnc2cn1)c1ccc(Cl)cc1 [Compound 109, N,3-bis(4-chlorophenyl)-N-methylimidazo[1,2-a]pyrazine-6-carboxamide]
1200 nM	CN(C(=O)c1cn2c(-c3ccc(C(F)(F)F)cc3Cl)cnc2cn1)c1ccc(C#N)cc1 [Compound 31, 3-[2-chloro-4-(trifluoromethyl)phenyl]-N-(4-cyanophenyl)-N-methylimidazo[1,2-a]pyrazine-6-carboxamide]
304 nM	CN(C(=O)c1cn2c(-c3ccc(NC(=O)C(N)C4CC4)cc3)cnc2cn1)c1ccc(C#N)cc1 (stereo in doubt) [Compound 292, 3-{4-[(2S)-2-amino-2-cyclopropylacetamido]phenyl}-N-(4-cyanophenyl)-N-methylimidazo[1,2-a]pyrazine-6-carboxamide]
20 nM	CN(C(=O)c1cn2c(-c3ccc(-c4cc[nH]n4)cc3)cnc2cn1)c1ccc(C#N)cc1 [Compound 484, N-(4-cyanophenyl)-N-methyl-3-[4-(1H-pyrazol-3-yl)phenyl]imidazo[1,2-a]pyrazine-6-carboxamide]
187 nM	CN(C(=O)c1cn2c(-c3ccc(C(F)(F)F)cc3)cnc2cn1)c1ccc(F)c(Br)c1 [Compound 52, N-(3-bromo-4-fluorophenyl)-N-methyl-3-[4-(trifluoromethyl)phenyl]imidazo[1,2-a]pyrazine-6-carboxamide]
54 nM	CC(=O)Nc1ccc(-c2cnc3cnc(C(=O)N(C)c4ccc(C#N)cc4)cn23)cc1 [Compound 485, N-(4-cyanophenyl)-3-(4-acetamidophenyl)-N-methylimidazo[1,2-a]pyrazine-6-carboxamide]
1230 nM	CN(C(=O)c1cn2c(-c3ccc(NC(C)(C)CN)cc3)cnc2cn1)c1ccc(C#N)cc1 [Compound 324, 3-{4-[(1-amino-2-methylpropan-2-yl)amino]phenyl}-N-(4-cyanophenyl)-N-methylimidazo[1,2-a]pyrazine-6-carboxamide]
320 nM	CN(C(=O)c1cn2c(-c3ccc4c(ccn4C)c3)cnc2cn1)c1ccc(F)cc1 [Compound 136, N-(4-fluorophenyl)-N-methyl-3-(1-methyl-1H-indol-5-yl)imidazo[1,2-a]pyrazine-6-carboxamide]
76 nM	CCN(C(=O)c1cn2c(-c3ccc(C(F)(F)F)cc3)cnc2cn1)c1ccc(C#N)cc1 [Compound 114, N-(4-cyanophenyl)-N-ethyl-3-[4-(trifluoromethyl)phenyl]imidazo[1,2-a]pyrazine-6-carboxamide]
439 nM	CN(C)CCN(C(=O)c1cn2c(-c3ccc(C(F)(F)F)cc3)cnc2cn1)c1ccc(C#N)cc1 [Compound 72, N-(4-cyanophenyl)-N-[2-(dimethylamino)ethyl]-3-[4-(trifluoromethyl)phenyl]imidazo[1,2-a]pyrazine-6-carboxamide]
140 nM	CN(C(=O)c1cn2c(-c3ccc(-c4ccn[nH]4)cc3)cnc2cn1)c1ccc(S(C)(=O)=O)cc1 [Compound 131, N-(4-methanesulfonylphenyl)-N-methyl-3-[4-(1H-pyrazol-5-yl)phenyl]imidazo[1,2-a]pyrazine-6-carboxamide]
206 nM	COC(=O)c1ccc(-c2cnc3cnc(C(=O)N(C)c4ccc(C#N)cc4)cn23)cc1 [Compound 166, methyl 4-{6-[(4-cyanophenyl)(methyl)carbamoyl]imidazo[1,2-a]pyrazin-3-yl}benzoate]
178 nM	CN(C(=O)c1ccc(C#N)cc1)c1cn2c(-c3ccc(C(F)(F)F)cc3)cnc2cn1 [Compound 283, 4-cyano-N-methyl-N-{3-[4-(trifluoromethyl)phenyl]imidazo[1,2-a]pyrazin-6-yl}benzamide]
490 nM	CC(=O)c1ccc(-c2cnc3cnc(C(=O)N(C)c4ccc(C#N)cc4)cn23)cc1 [Compound 134, 3-(4-acetylphenyl)-N-(4-cyanophenyl)-N-methylimidazo[1,2-a]pyrazine-6-carboxamide]

Same assay, conditions: Plasmodium falciparum, Erythrocyte, infected human red blood cells; read-out: EC50, P. falciparum Proliferation Assay

EC50	Structure (SMILES)
< 50 nM	Cc1ccc(N(C)Cc2cn3c(-c4ccc(-c5ccn[nH]5)cc4)cnc3cn2)nc1 [Compound 47, N,5-dimethyl-N-({3-[4-(1H-pyrazol-5-yl)phenyl]imidazo[1,2-a]pyrazin-6-yl}methyl)pyridin-2-amine]
< 50 nM	CN(C)CCN(C(=O)c1cn2c(-c3ccc(C(F)(F)F)cc3)cnc2cn1)c1ccc(C#N)cc1 [Compound 72, N-(4-cyanophenyl)-N-[2-(dimethylamino)ethyl]-3-[4-(trifluoromethyl)phenyl]imidazo[1,2-a]pyrazine-6-carboxamide]

— patent publication US20150291598A1 (NOVARTIS AG, priority 2012, published 2015)
